Measurements published in PMC10412585 (Nature Communications, 2023).
Entries after “also recorded” stand apart in the source; their conditions may differ. Like-named read-outs stand apart in the source and are kept apart here.

What was measured:
Type in all cases: cell-based, human
NKG2A+/NKG2C- NK cells = experiment: NK cell activation assay with peptide-pulsed K562/HLA-E cells, NKG2A+/NKG2C- NK cells; conditions: K562/HLA-E target cells, 300 µM peptide ([…] µM BFAR263-271), E:T 2:1, 6 h; degranulation (CD107a), IFN-γ, TNF, CCL3; flow cytometry
Experimental: (§1) We hypothesized that our predicted proteome-derived peptides could affect NK cell activation through interactions with CD94/NKG2A and CD94/NKG2C. To investigate, we performed cell-based activation assays on primary NK cells (Fig. 4A). NK cells were co-incubated with peptide-pulsed HLA-E-expressing K562 cells, as described previously. The parental K562 human myelogenous leukemia cell line is a typical target to measure NK cell cytotoxicity and activation, allowing for assessment of both NKG2A-mediated inhibition and NKG2C-mediated activation. […] NKG2A^-/NKG2C^- NK cells served as internal control as these should be unaffected by peptide-HLA-E complexes (Supplemental Fig. 12).
(§2) Fig. 4 NK cell stimulation assays. Assessment of effects of peptides on NK cell activity through incubation of NK cells, peptides, and (A) K562/HLA-E or (B) RMA-S/HLA-E target cells. […] Replicates for individual peptides are from different donors, with solid black lines indicating mean values. […] Representative gating for NKG2A^+/NKG2C^- and NKG2A^-/NKG2C^+ NK cells is shown in Supplemental Fig. 14. Source data are provided as a Source Data file.
(§3) All analyses of human data were carried out in compliance with the relevant ethical regulations. Healthy blood donors gave informed consent at DRK Blutspendedienst Nord-Ost, Dresden, Germany, and buffy coats were obtained as approved by Charité ethics committee (EA4/059/17). PBMCs were isolated from human CMV-seropositive buffy coats by density centrifugation over Ficoll Paque Plus (GE Healthcare) and screened for the presence of NKG2C^+ NK cell expansions by flow cytometry to have sufficient frequencies of single-positive cells for parallel assessment of activation and inhibition via HLA-E[47]. Total NK cells from donors with NKG2C^+ expansions (>10% NKG2A^-/NKG2C^+ NK cells) were enriched with CD56 microbeads (Miltenyi Biotec) and cryopreserved in FBS with 10% v/v DMSO. After thawing, NK cells were washed with complete medium, stained with antibodies and Fixable Viability Dye eFluor 780 (Thermo Fisher) for 15 min at 4 °C in PBS, sorted as viable CD56^+ CD3^− cells, and rested in complete media overnight. […] Brefeldin A and Monensin (BD Biosciences) were added after a 1 h culture period. After an additional 5 h, the stimulation was stopped by centrifugation at 4 °C. Cells underwent surface staining, followed by fixation and intracellular staining using Inside Stain Kit (Miltenyi Biotec). Samples were analyzed by flow cytometry on an LSR Fortessa (BD Biosciences). Inhibition of NKG2A^+ NK cells and activation of NKG2C^+ NK cells was assessed by gating on the respective single-positive populations (Supplemental Fig. 14). Antibodies are listed in Supplemental Table 1: anti-human CD56 PE/Dazzle 594 (1:200 dilution), CD3 APC-eFluor 780 (1:50 dilution), anti-human CD159a (NKG2A) Biotin REAfinity (1:50 dilution), anti-human CD159c (NKG2C) PE REAfinity (1:100 dilution), anti-human CD107a (LAMP-1) Alexa Fluor 488 (1:400 dilution), anti-human IFN-γ PE-Vio 770 REAfinity (1:50 dilution), anti-human TNF-α Brilliant Violet 605 (1:50 dilution), anti-human CCL3 (MIP-1α) REAfinity (1:25 dilution).

NKG2A-/NKG2C+ NK cells = experiment: NK cell activation assay with peptide-pulsed K562/HLA-E cells, NKG2A-/NKG2C+ NK cells; conditions: K562/HLA-E target cells, 300 µM peptide ([…] µM BFAR263-271), E:T 2:1, 6 h; degranulation (CD107a), IFN-γ, TNF, CCL3; flow cytometry
Experimental: as §1, §2, §3

HLA-E = HLA-E surface stabilization assay with RMA-S/HLA-E cells; conditions: peptide 3-300 µM (Fig. 3: 30 µM) in OptiMEM, 16 h, 37 °C, anti-HLA-E 3D12, flow cytometry, n = 4 replicate experiments
Experimental: To probe top-predicted proteome-derived peptides (Tables 2 and 3) for HLA-E binding, we assessed their ability to stabilize surface-expressed HLA-E on RMA-S/HLA-E cells, a TAP-deficient mouse cell line engineered to express HLA-E and human β2M (Fig. 3 and Supplemental Fig. 8)[47].
Fig. 3 Peptide stabilization of HLA-E surface expression. Assessment of peptide-HLA-E binding via HLA-E surface stabilization assay with RMA-S/HLA-E cells incubated with 30 μM peptide. HLA-E expression is detected with an anti-HLA-E antibody. Measurements from n = 4 replicate experiments are shown, with solid black lines indicating mean values. […] Source data are provided as a Source Data file.
RMA-S/HLA-E cells were incubated with serial dilutions of peptides (3–300 µM, Genscript) in OptiMEM (ThermoFisher) for 16 h at 37 °C. Cells were washed with PBS, stained for HLA-E (Clone 3D12, Biolegend, 1:200 dilution) for 15 min at room temperature and analyzed by flow cytometry (analysis in FlowJo version 10). Peptide UBAC2_275-279 was ordered as a 5mer peptide (WNRLF) given the similarity with other WN peptides and hypothesis of a truncated peptide binding in the HLA-E groove. […] Measurements from replicate experiments are plotted in Fig. 3 and Supplemental Fig. 8.

NKG2C+ NK cells = experiment: NK cell activation assay with peptide-pulsed RMA-S/HLA-E cells; conditions: for average percent CD107a+: NKG2C+ NK cells with RMA-S/HLA-E cells, Fig. 4B, stated in author rebuttal
Experimental: as §2
In contrast to K562 cell lines which are targets for human NK cells, RMA-S cells (a TAP-deficient mouse cell line)[48] are inert to human NK cells and thus will not activate NK cells absent engagement of an activating receptor on the NK cells. […] We performed additional NK cell activation assays with RMA-S/HLA-E cells (Fig. 4B).
as §3

[1] = RMA-S/HLA-E target cells, 300 µM peptide ([…] µM BFAR263-271), E:T 2:1, 6 h, flow cytometry, n = 3 (n = 2 for some) donors

TAPARTMFL [PISD55-63, human peptide from Phosphatidylserine decarboxylase proenzyme, mitochondrial]
inhibitory effects on NKG2A+ cells (NKG2A+/NKG2C- NK cells): minimal inhibitory effects
activating effects on NKG2C+ cells (NKG2A-/NKG2C+ NK cells): clear activating effects
stabilization of HLA-E surface expression (HLA-E): strong binding that is weaker than VMAPRTLFL; also recorded: strong stabilization
NKG2C-mediated NK cell activation (NKG2C+ NK cells): detectable activation, though below both positive control examples
average percent CD107a+ (NKG2C+ NK cells): 7.8%

WNRILPNA [length variant of WN peptide]
stabilization of HLA-E surface expression (HLA-E): did not stabilize HLA-E surface

VMADKSIFY [OR5D14_88-96, human peptide from Olfactory receptor 5D14]
stabilization of HLA-E surface expression (HLA-E): no detectable binding; also recorded: no stabilizing effects

WNRILPN [length variant of WN peptide]
stabilization of HLA-E surface expression (HLA-E): did not stabilize HLA-E surface

WNRIL [length variant of WN peptide]
stabilization of HLA-E surface expression (HLA-E): did not stabilize HLA-E surface

WNRILPNAY [library-derived WN 9mer peptide (P1 Trp, P2 Asn)]
stabilization of HLA-E surface expression (HLA-E): did not stabilize HLA-E surface

NMPARTVLF [MTREX490-498, human peptide from Exosome RNA helicase MTR4]
inhibitory effects on NKG2A+ cells (NKG2A+/NKG2C- NK cells): strong inhibitory effects
activating effects on NKG2C+ cells (NKG2A-/NKG2C+ NK cells): strong activating effects
stabilization of HLA-E surface expression (HLA-E): strong binding that is weaker than VMAPRTLFL; also recorded: strong stabilization
NKG2C-mediated NK cell activation (NKG2C+ NK cells; [1]): detectable activation, though below both positive control examples

VMPPRTLLL [HLA-A3-11, human peptide from HLA class I histocompatibility antigen]
inhibitory effects on NKG2A+ cells (NKG2A+/NKG2C- NK cells): strong inhibitory effects
activating effects on NKG2C+ cells (NKG2A-/NKG2C+ NK cells): strong activating effects
stabilization of HLA-E surface expression (HLA-E): HLA-E stabilization matching VMAPRTLFL peptide; also recorded: strong stabilization
NKG2C-mediated NK cell activation (NKG2C+ NK cells): activation similar to the weaker positive control ([…]) or between the two positive controls

SVPLKTRFL [UL120_71-79, BE/33/2010, divergent UL120 peptide of CMV strain BE/33/2010]
inhibitory effects on NKG2A+ cells (NKG2A+/NKG2C- NK cells): minimal effects
activating effects on NKG2C+ cells (NKG2A-/NKG2C+ NK cells): minimal effects
stabilization of HLA-E surface expression (HLA-E): weaker but detectable stabilization

TLPERTLYL [ECEL1_269-277, human peptide from Endothelin-converting enzyme-like 1]
inhibitory effects on NKG2A+ cells (NKG2A+/NKG2C- NK cells): strong inhibitory effects
activating effects on NKG2C+ cells (NKG2A-/NKG2C+ NK cells): strong activating effects
stabilization of HLA-E surface expression (HLA-E): HLA-E stabilization matching VMAPRTLFL peptide; also recorded: strong stabilization
NKG2C-mediated NK cell activation (NKG2C+ NK cells): activation similar to the weaker positive control ([…]) or between the two positive controls

TGAARSFFF [UL102_292-300, CMV peptide from DNA helicase/primase complex-associated protein]
stabilization of HLA-E surface expression (HLA-E): no detectable binding; also recorded: no stabilizing effects

VMAPQSLLL [negative control peptide, reference compound]
NKG2C-mediated NK cell activation (NKG2C+ NK cells): Minimal activation
average percent CD107a+ (NKG2C+ NK cells): 1.1%

TLPKRGLFL [AKAP6_388-396, human peptide from A-kinase anchor protein 6]
inhibitory effects on NKG2A+ cells (NKG2A+/NKG2C- NK cells): more moderate inhibitory effects
activating effects on NKG2C+ cells (NKG2A-/NKG2C+ NK cells): strong activating effects
stabilization of HLA-E surface expression (HLA-E): strong binding that is weaker than VMAPRTLFL; also recorded: strong stabilization
NKG2C-mediated NK cell activation (NKG2C+ NK cells; [1]): activation at the level of the strongest positive control binder (VMAPRTLFL)

VMAPRTLIL [canonical signal peptide / CMV UL40-derived HLA-E ligand; positive control, reference compound]
NKG2C-mediated NK cell activation (NKG2C+ NK cells; [1]): weaker positive control

FLPNRSLLF [SLC52A3_354-362, human peptide from Solute carrier family 52, riboflavin transporter, member 3]
inhibitory effects on NKG2A+ cells (NKG2A+/NKG2C- NK cells): more moderate inhibitory effects
activating effects on NKG2C+ cells (NKG2A-/NKG2C+ NK cells): strong activating effects
stabilization of HLA-E surface expression (HLA-E): strong binding that is weaker than VMAPRTLFL; also recorded: strong stabilization
NKG2C-mediated NK cell activation (NKG2C+ NK cells): activation similar to the weaker positive control ([…]) or between the two positive controls

RMPPRSVLL [INTS1_260-268, human peptide from Integrator complex subunit 1]
inhibitory effects on NKG2A+ cells (NKG2A+/NKG2C- NK cells): strong inhibitory effects
activating effects on NKG2C+ cells (NKG2A-/NKG2C+ NK cells): strong activating effects
stabilization of HLA-E surface expression (HLA-E): HLA-E stabilization matching VMAPRTLFL peptide; also recorded: strong stabilization

WNRILP [length variant of WN peptide]
stabilization of HLA-E surface expression (HLA-E): did not stabilize HLA-E surface

VMGDRSVLY [EMC1_725-733, human peptide from ER membrane protein complex subunit 1]
stabilization of HLA-E surface expression (HLA-E): no detectable binding; also recorded: no stabilizing effects

ILTDRSLWL [FBXO41_670-678, human peptide from F-box only protein 41]
inhibitory effects on NKG2A+ cells (NKG2A+/NKG2C- NK cells): more moderate inhibitory effects
activating effects on NKG2C+ cells (NKG2A-/NKG2C+ NK cells): strong activating effects
stabilization of HLA-E surface expression (HLA-E): strong binding that is weaker than VMAPRTLFL; also recorded: strong stabilization
NKG2C-mediated NK cell activation (NKG2C+ NK cells; [1]): activation at the level of the strongest positive control binder (VMAPRTLFL)

WNRLF [UBAC2_275-279, UBAC2 peptide ordered and tested as a 5mer peptide (WNRLF)]
stabilization of HLA-E surface expression (HLA-E): no detectable binding; also recorded: no stabilizing effects

VMPGRTLCF [TACR3_226-234, human peptide from Neuromedin-K receptor]
inhibitory effects on NKG2A+ cells (NKG2A+/NKG2C- NK cells): strong inhibitory effects
activating effects on NKG2C+ cells (NKG2A-/NKG2C+ NK cells): strong activating effects
stabilization of HLA-E surface expression (HLA-E): HLA-E stabilization matching VMAPRTLFL peptide; also recorded: strong stabilization
NKG2C-mediated NK cell activation (NKG2C+ NK cells): activation similar to the weaker positive control ([…]) or between the two positive controls
